From the supplement of paper PMC10307832

Assays:
Test in all cases: relative viability (nuclei count vs DMSO), 5 days (fraction); higher = more cells survive
BEN = test system: BEN
Procedure, shortened: (§1)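 Relative viability was taken as the ratio of nuclei in treated wells to nuclei in vehicle wells. Lung cancer cell lines in 1536-well plates received compounds by pin tool one day after seeding, either one drug alone or a fixed anchor-drug dose plus five library-drug doses (not always all listed) in √10 steps. Nuclei were counted on 4× images after 5 days of treatment, and values are medians of duplicate plates.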

CAL-12T = test system: CAL-12T
Procedure, shortened: as §1

EKVX = test system: EKVX
Procedure, shortened: as §1

HCC-44 = test system: HCC-44
Procedure, shortened: as §1

LOU-NH91 = test system: LOU-NH91
Procedure, shortened: as §1

LU99A = test system: LU99A
Procedure, shortened: as §1

NCI-H1355 = test system: NCI-H1355
Procedure, shortened: as §1

NCI-H1395 = test system: NCI-H1395
Procedure, shortened: as §1

NCI-H1437 = test system: NCI-H1437
Procedure, shortened: as §1

NCI-H1563 = test system: NCI-H1563
Procedure, shortened: as §1

NCI-H1650 = test system: NCI-H1650
Procedure, shortened: as §1

NCI-H1651 = test system: NCI-H1651
Procedure, shortened: as §1

NCI-H1734 = test system: NCI-H1734
Procedure, shortened: as §1

NCI-H1755 = test system: NCI-H1755
Procedure, shortened: as §1

NCI-H1975 = test system: NCI-H1975
Procedure, shortened: as §1

NCI-H2023 = test system: NCI-H2023
Procedure, shortened: as §1

NCI-H2085 = test system: NCI-H2085
Procedure, shortened: as §1

NCI-H2342 = test system: NCI-H2342
Procedure, shortened: as §1

NCI-H358 = test system: NCI-H358
Procedure, shortened: as §1

NCI-H441 = test system: NCI-H441
Procedure, shortened: as §1

NCI-H460 = test system: NCI-H460
Procedure, shortened: as §1

NCI-H838 = test system: NCI-H838
Procedure, shortened: as §1

Compound: C=C1C(=O)O[C@@H](CCCCCCCC)[C@@H]1C(=O)O [C-75] + CCNC(=O)c1noc(-c2cc(C(C)C)c(O)cc2O)c1-c1ccc(CN2CCOCC2)cc1 [Luminespib] (partner 0.01 µM)
- relative viability (BEN; first compound 0.08 µM): 0.351
- relative viability (BEN; first compound 0.253 µM): 0.302
- relative viability (BEN; first compound 0.8 µM): 0.302
- relative viability (BEN; first compound 8 µM): 0.181
- relative viability (CAL-12T; first compound 0.08 µM): 0.898
- relative viability (CAL-12T; first compound 0.253 µM): 0.365
- relative viability (CAL-12T; first compound 0.8 µM): 0.178
- relative viability (CAL-12T; first compound 2.53 µM): 0.405
- relative viability (CAL-12T; first compound 8 µM): 0.376
- relative viability (EKVX; first compound 0.08 µM): 0.867
- relative viability (EKVX; first compound 0.253 µM): 0.984
- relative viability (EKVX; first compound 0.8 µM): 0.788
- relative viability (EKVX; first compound 8 µM): 0.891
- relative viability (HCC-44; first compound 0.08 µM): 0.966
- relative viability (HCC-44; first compound 0.253 µM): 0.984
- relative viability (HCC-44; first compound 0.8 µM): 1
- relative viability (HCC-44; first compound 2.53 µM): 0.89
- relative viability (HCC-44; first compound 8 µM): 0.729
- relative viability (LOU-NH91; first compound 0.08 µM): 0.307
- relative viability (LOU-NH91; first compound 0.253 µM): 0.346
- relative viability (LOU-NH91; first compound 0.8 µM): 0.344
- relative viability (LOU-NH91; first compound 2.53 µM): 0.29
- relative viability (LOU-NH91; first compound 8 µM): 0.32
- relative viability (LU99A; first compound 0.08 µM): 0.209
- relative viability (LU99A; first compound 0.253 µM): 0.297
- relative viability (LU99A; first compound 0.8 µM): 0.251
- relative viability (LU99A; first compound 2.53 µM): 0.252
- relative viability (LU99A; first compound 8 µM): 0.286
- relative viability (NCI-H1355; first compound 0.08 µM): 0.621
- relative viability (NCI-H1355; first compound 0.253 µM): 0.668
- relative viability (NCI-H1355; first compound 0.8 µM): 0.641
- relative viability (NCI-H1355; first compound 2.53 µM): 0.394
- relative viability (NCI-H1355; first compound 8 µM): 0.615
- relative viability (NCI-H1395; first compound 0.08 µM): 0.613
- relative viability (NCI-H1395; first compound 0.253 µM): 0.574
- relative viability (NCI-H1395; first compound 0.8 µM): 0.713
- relative viability (NCI-H1395; first compound 2.53 µM): 0.755
- relative viability (NCI-H1395; first compound 8 µM): 0.686
- relative viability (NCI-H1437; first compound 0.08 µM): 1.15
- relative viability (NCI-H1437; first compound 0.253 µM): 1.27
- relative viability (NCI-H1437; first compound 0.8 µM): 1.11
- relative viability (NCI-H1437; first compound 2.53 µM): 1.13
- relative viability (NCI-H1437; first compound 8 µM): 1.12
- relative viability (NCI-H1563; first compound 0.08 µM): 0.498
- relative viability (NCI-H1563; first compound 0.253 µM): 0.535
- relative viability (NCI-H1563; first compound 0.8 µM): 0.531
- relative viability (NCI-H1563; first compound 2.53 µM): 0.483
- relative viability (NCI-H1563; first compound 8 µM): 0.557
- relative viability (NCI-H1650; first compound 0.08 µM): 0.215
- relative viability (NCI-H1650; first compound 0.253 µM): 0.194
- relative viability (NCI-H1650; first compound 2.53 µM): 0.141
- relative viability (NCI-H1650; first compound 8 µM): 0.211
- relative viability (NCI-H1651; first compound 0.08 µM): 0.817
- relative viability (NCI-H1651; first compound 0.253 µM): 0.939
- relative viability (NCI-H1651; first compound 0.8 µM): 0.829
- relative viability (NCI-H1651; first compound 2.53 µM): 0.672
- relative viability (NCI-H1651; first compound 8 µM): 0.934
- relative viability (NCI-H1734; first compound 0.08 µM): 0.201
- relative viability (NCI-H1734; first compound 0.253 µM): 0.192
- relative viability (NCI-H1734; first compound 0.8 µM): 0.178
- relative viability (NCI-H1734; first compound 2.53 µM): 0.184
- relative viability (NCI-H1734; first compound 8 µM): 0.185
- relative viability (NCI-H1755; first compound 0.08 µM): 0.384
- relative viability (NCI-H1755; first compound 0.253 µM): 0.489
- relative viability (NCI-H1755; first compound 0.8 µM): 0.465
- relative viability (NCI-H1755; first compound 2.53 µM): 0.467
- relative viability (NCI-H1755; first compound 8 µM): 0.416
- relative viability (NCI-H1975; first compound 0.08 µM): 0.161
- relative viability (NCI-H1975; first compound 0.253 µM): 0.195
- relative viability (NCI-H1975; first compound 0.8 µM): 0.122
- relative viability (NCI-H1975; first compound 2.53 µM): 0.13
- relative viability (NCI-H1975; first compound 8 µM): 0.252
- relative viability (NCI-H2023; first compound 0.08 µM): 0.746
- relative viability (NCI-H2023; first compound 0.253 µM): 0.921
- relative viability (NCI-H2023; first compound 0.8 µM): 0.706
- relative viability (NCI-H2023; first compound 8 µM): 0.696
- relative viability (NCI-H2085; first compound 0.08 µM): 0.427
- relative viability (NCI-H2085; first compound 0.253 µM): 0.416
- relative viability (NCI-H2085; first compound 0.8 µM): 0.38
- relative viability (NCI-H2085; first compound 2.53 µM): 0.366
- relative viability (NCI-H2085; first compound 8 µM): 0.417
- relative viability (NCI-H2342; first compound 0.08 µM): 0.798
- relative viability (NCI-H2342; first compound 0.253 µM): 0.802
- relative viability (NCI-H2342; first compound 0.8 µM): 0.689
- relative viability (NCI-H2342; first compound 2.53 µM): 0.743
- relative viability (NCI-H2342; first compound 8 µM): 0.68
- relative viability (NCI-H358; first compound 0.08 µM): 0.338
- relative viability (NCI-H358; first compound 0.253 µM): 0.247
- relative viability (NCI-H358; first compound 0.8 µM): 0.314
- relative viability (NCI-H358; first compound 2.53 µM): 0.355
- relative viability (NCI-H358; first compound 8 µM): 0.224
- relative viability (NCI-H441; first compound 0.08 µM): 0.329
- relative viability (NCI-H441; first compound 0.253 µM): 0.453
- relative viability (NCI-H441; first compound 0.8 µM): 0.295
- relative viability (NCI-H441; first compound 2.53 µM): 0.518
- relative viability (NCI-H441; first compound 8 µM): 0.305
- relative viability (NCI-H460; first compound 0.08 µM): 0.0308
- relative viability (NCI-H460; first compound 0.253 µM): 0.0239
- relative viability (NCI-H460; first compound 0.8 µM): 0.0329
- relative viability (NCI-H460; first compound 8 µM): 0.0319
- relative viability (NCI-H838; first compound 0.08 µM): 0.325
- relative viability (NCI-H838; first compound 0.8 µM): 0.296
- relative viability (NCI-H838; first compound 2.53 µM): 0.286
- relative viability (NCI-H838; first compound 8 µM): 0.238
